Data taken from patent US20170029839A1, “METHOD FOR IMPROVING CROP PRODUCTIVITY” (priority 2013, published 2017).

Key:
[1] = tested on: enzyme encoded by SDG8i (SL-UGT); assay: UGT enzyme assay (coupled pyruvate kinase/lactate dehydrogenase, NADH absorbance at 340 nm) with N. benthamiana leaf protein extract expressing SDG8i; format: biochemical, Sporobolus stapfianus
Protocol: UGT was produced in N. benthamiana leaf tissue by transient transfection using a viral-based MagnICON vector system (Icon Genetics GmbH, Halle/Salle, Germany).
Briefly, the UGT coding sequence was amplified from the SDG8i cDNA (Le et al., 2007) and ligated into the MagnICON plasmid. The plasmid was then cultured in Escherichia coli DH5α (ATCC Catalog No 53868) and electroporated into Agrobacterium tumefaciens LBA4404). Subsequently, Nicotiana benthamiana leaves were covered in aluminium foil for 3 days before being co-infiltrated with the plasmid and the apoplast-targeting and intergrase modules of the MagnICON system (Marillonnet et al. 2005). Leaves were then harvested 5 days after the co-infiltration and homogenised in ice-cold protein extraction buffer. Following removal of the insoluble material by centrifugation at 13,000 rpm at 4° C. for 5 minutes, protein assays were carried out with Bio-Rad Protein Assay Dye (Bio-Rad Laboratories Inc, Hercules, Calif., United States of America) using bovine serum albumin (BSA) as reference. Protein extracts were analysed by SDS-PAGE using the standard methods described by Sambrook et al. (1989).
UGT activity was measured using a coupled assay with pyruvate kinase and lactate dehydrogenase with the reaction rate monitored by the change in NADH absorbance at 340 nm (Jackson et al. 2001). Activity in millikatals kg^−1 was calculated using the extinction coefficient […] for NADH. The background activity of the extracts, monitored by the measurement of the rate without substrate addition, was subtracted from the reaction rate.
To investigate the catalytic function of the enzyme encoded by the SDG8i cDNA, the glucosyltransferase activity of N. benthamiana leaf protein extracts infiltrated with a CaMV 35S promoter driven SDG8i construct was tested against a number of substrates and compared with activity in extracts infiltrated with a vector-only control. The assay utilised a linked enzymic reaction as described in the Materials and Methods. […]

Orobanche seeds = assay: Orobanche germination assay; format: in vivo; settings: 0.6 ml aqueous solution 0.0001 mg/1, 7 days at 18-20° C. in the dark; seeds with emerged radicle; water control 11%
Protocol: Orobanche seeds were surface sterilised with 2% sodium hypochlorite containing 0.02% (v/v) of polysorbate 20 surfactant (Tween 20™; Sigma-Aldrich Co LLC, St Louis, Mo., United States of America) for 5 min then rinsed (5×) with sterile ddH2O and dried for 30 min in a laminar air flow cabinet. Subsequently, between 50 and 100 seeds were spread on a sterile […] glass fibre disk and placed in petri dishes (9 cm diameter) lined with filter paper wetted with 3 mL of ddH2O. 1 ml of gibberellic acid (GA3) (30 mg/L) was applied to the seeds and the petri dishes then sealed with parafilm and incubated at 18-20° C. in the dark for preconditioning. After 7 days, surface-sterilised seeds of Arabidopsis W/T, SDG8i transgenics, sorghum and & stapfianus were placed on 5 cm glass microfiber disks and incubated on ¼ MS media with 0.5% sugar and 0.8% agar. For controls, 0.6 ml aqueous solution of synthetic strigolactone analog GR24 (Chiralix B.V., Toernooiveld 1006525 EC Nijmegen, The Netherlands) (0.0001 mg/1) or sterile water was applied to petri dishes with preconditioned Orobanche seeds. The plates were then resealed with parafilm and wrapped with foil and incubated at 18-20° C. for 7 days for germination. Orobanche seed germination was determined under a stereoscopic microscope by counting the number of seeds having an emerged radicle.

[2] = tested on: SDG8i promoter-driven GUS reporter (prSDG8i-GUS); assay: Activation of GUS expression driven by prSDG8i in onion epidermal peels; format: cell-based; settings: onion peels containing prSDG8i-GUS construct by itself, MJ added to suspension
Excerpt: The promoter sequence (1660 nt) of SDG8i was placed upstream of the GUS reporter gene in a construct designated prSDG8i-GUS. This construct was transiently co-transformed into onion epidermal peels along with the pMDC32:7y or pMDC32:10y constructs which contained either SDG10y or SDG7y under the transcriptional regulation of the CaMV 35S promoter which is constitutively active in onion cells. The formation of a blue precipitate indicates activation of the SDG8i promoter-driven GUS reporter gene by the SDG10y or SDG7y transcription factor constructs.
Agrobacterium-mediated transient transformation was achieved by immersing onion peels in the Agrobacterium suspensions containing these constructs in 10 mM MES buffer (pH 5.5) and 200 μM acetosyringone at 28° C. in the dark for 2/3 days. A 35S:GUS control construct was included in these experiments and the hormone methyl jasmonate (MJ) was also added to some suspensions. After 2 days, the onion peels were soaked in a GUS staining solution and left at 28° C. in the dark. The onion peels were examined every 2 hours to monitor the formation of blue precipitate.

| SMILES | Km ([1]; GR24 as substrate of SDG8i extract, FIG. 1B) [µM] | Vmax ([1]; GR24 as substrate of SDG8i extract, FIG. 1B, method: activity calculated in millikatals kg^-1) | glycosylation activity ([1]; SDG8i extract versus vector-only control, background endogenous NADH oxidase subtracted, FIG. 1A) | Orobanche seed germination (Orobanche seeds) [%] | GUS activity [2] |
| --- | --- | --- | --- | --- | --- |
| CC1=CC(O/C=C2/C(=O)OC3c4ccccc4CC23)OC1=O (centres unmarked) [GR24] | 349 | 5.67 | substantial glycosylation activity | 95 | – |
| CC/C=C\CC1C(=O)CCC1CC(=O)OC (centres unmarked) [MJ, methyl jasmonate] | – | – | – | – | elevated |
